The source of these data is ChEMBL document CHEMBL3046573, “Baseline sensitivity of Pestalotiopsis microspora, which causes black spot disease on Chinese hickory (Carya cathayensis), to pyraclostrobin” (Crop Prot, 2012).

Assay [1] deals with Pestalotiopsis microspora. The assay can be described thus: Fungicidal activity against pyraclostrobin-resistant mutant Pestalotiopsis microspora isolate LA1R1 assessed as conidium germination inhibition at 25 degC. Type of assay: functional, organism-based.
Assay [2] deals with Pestalotiopsis microspora. The assay can be described thus: Fungicidal activity against Pestalotiopsis microspora infected in Chinese hickory orchards assessed as conidium germination inhibition at 25 degC after 24 hr. Type of assay: functional, organism-based.
The test system of assay [3] is Pestalotiopsis microspora. The assay can be described thus: Fungicidal activity against pyraclostrobin-resistant mutant Pestalotiopsis microspora isolate LA1R2 assessed as conidium germination inhibition at 25 degC. Type of assay: functional, organism-based.
Assay [4] concerns Pestalotiopsis microspora. The assay can be described thus: Fungicidal activity against Pestalotiopsis microspora infected Chinese hickory orchards assessed as mycelial growth inhibition at 25 degC after 5 days. The class given is functional, organism-based. The following applies: 120 h.
Assay [5] relates to Pestalotiopsis microspora. The assay can be described thus: Fungicidal activity against pyraclostrobin-resistant mutant Pestalotiopsis microspora isolate CA8R3 assessed as conidium germination inhibition at 25 degC. Type of assay: functional, organism-based.
The subject of assay [6] is Pestalotiopsis microspora. The assay can be described thus: Fungicidal activity against wild type Pestalotiopsis microspora isolate LA-1 assessed as conidium germination inhibition at 25 degC. The class given is functional, organism-based.
In assay [7] the test system is Pestalotiopsis microspora. The assay can be described thus: Resistance factor, ratio of EC50 for pyraclostrobin-resistant mutant Pestalotiopsis microspora isolate CA8R3 to EC50 for wild type Pestalotiopsis microspora isolate CA-8. Type of assay: functional.
Assay [8] relates to Pestalotiopsis microspora. In words: Resistance factor, ratio of EC50 for pyraclostrobin-resistant mutant Pestalotiopsis microspora isolate LA1R1 to EC50 for wild type Pestalotiopsis microspora isolate LA-1. The class given is functional.
In assay [9] the test system is Pestalotiopsis microspora. In words: Resistance factor, ratio of EC50 for pyraclostrobin-resistant mutant Pestalotiopsis microspora isolate LA1R2 to EC50 for wild type Pestalotiopsis microspora isolate LA-1. Type of assay: functional.
Assay [10] relates to Pestalotiopsis microspora. In words: Fungicidal activity against pyraclostrobin-resistant mutant Pestalotiopsis microspora isolate CA8R2 assessed as conidium germination inhibition at 25 degC. The class given is functional, organism-based.
Assay [11] has as its system Pestalotiopsis microspora. The assay can be described thus: Resistance factor, ratio of EC50 for pyraclostrobin-resistant mutant Pestalotiopsis microspora isolate CA8R2 to EC50 for wild type Pestalotiopsis microspora isolate CA-8. The class given is functional.
Assay [12] concerns Pestalotiopsis microspora. The assay can be described thus: Fungicidal activity against wild type Pestalotiopsis microspora isolate CA-8 assessed as conidium germination inhibition at 25 degC. The class given is functional, organism-based.
The subject of assay [13] is Pestalotiopsis microspora. The assay can be described thus: Resistance factor, ratio of EC50 for pyraclostrobin-resistant mutant Pestalotiopsis microspora isolate CA8R1 to EC50 for wild type Pestalotiopsis microspora isolate CA-8. Type of assay: functional.
In assay [14] the test system is Pestalotiopsis microspora. The assay can be described thus: Fungicidal activity against pyraclostrobin-resistant mutant Pestalotiopsis microspora isolate CA8R1 assessed as conidium germination inhibition at 25 degC. Type of assay: functional, organism-based.
Assay [15] has as its system Pestalotiopsis microspora. In words: Fungicidal activity against Pestalotiopsis microspora isolates infected Chinese hickory orchards by conidium germination test. The class given is functional, organism-based.

In brackets after ≈: the same amount, converted by molar mass.

Usually EC50 stands for the midpoint of the concentration-response curve. With `CO/C=C(/C(=O)OC)c1ccccc1Oc1cc(Oc2ccccc2C#N)ncn1` [AZOXYSTROBIN], the EC50 in assay [1] worked out at 4.78 µg/mL (≈ 11.8 µM); in [2], 1.36 µg/mL (≈ 3.37 µM); in assay [3], 12.2 µg/mL (≈ 30.3 µM); in assay [4] it was 2.61 µg/mL (≈ 6.47 µM); in assay [5], 15.4 µg/mL (≈ 38.2 µM); in assay [6], 0.32 µg/mL (≈ 0.793 µM). The half-maximal effective concentration (EC50) was 21.9 µg/mL (≈ 54.3 µM) in assay [10], 0.76 µg/mL (≈ 1.88 µM) in assay [12] and 17.3 µg/mL (≈ 42.9 µM) in assay [14]. The “Ratio EC50” value in assay [7] stood at 20.25; in assay [8], 14.94; in assay [9], 38.16; in [11], 28.82; in assay [13], 22.75.

Take `O=C(Nc1ccccc1-c1ccc(Cl)cc1)c1cccnc1Cl` [BOSCALID]: the half-maximal effective concentration (EC50) was determined as 19.7 µg/mL (≈ 57.4 µM) in assay [1]; 23.9 µg/mL (≈ 69.7 µM) in assay [2]; 20.6 µg/mL (≈ 60 µM) in [3]; 167 µg/mL (≈ 486 µM) in [4]; 19 µg/mL (≈ 55.4 µM) in assay [5]; 20.1 µg/mL (≈ 58.6 µM) in [6]. Moreover, the EC50 in assay [10] was found to be 17.7 µg/mL (≈ 51.6 µM); in [12], 18.6 µg/mL (≈ 54.2 µM); in assay [14], 18.1 µg/mL (≈ 52.7 µM). Also, the “Ratio EC50” value in assay [7] came to 1.05; in assay [8] it was 0.98; in assay [9] it was 1.02; in assay [11], 0.95; in assay [13], 0.97.

In the case of `N#Cc1c(Cl)c(Cl)c(Cl)c(C#N)c1Cl` [CHLOROTHALONIL], the EC50 in assay [2] worked out at 3.05 µg/mL (≈ 11.5 µM); in assay [4], 2.08 µg/mL (≈ 7.82 µM).

Turning to `CC1COC(Cn2cncn2)(c2ccc(Oc3ccc(Cl)cc3)cc2Cl)O1` (configuration not stated) [DIFENOCONAZOLE], the EC50 in assay [2] stood at 28.5 µg/mL (≈ 70.1 µM); in assay [4] it was 4.27 µg/mL (≈ 10.5 µM).

Regarding `CC(=O)O.CCCCCCCCCCCCNC(=N)N` [DODINE], the half-maximal effective concentration (EC50) in assay [2] was determined as 32.7 µg/mL; in [4], 27 µg/mL.

For the molecule `CC(C)NC(=O)N1CC(=O)N(c2cc(Cl)cc(Cl)c2)C1=O` [IPRODIONE], the EC50 in assay [2] was found to be 9.87 µg/mL (≈ 29.9 µM); in assay [4], 2.03 µg/mL (≈ 6.15 µM).

Take `CC12CC1(C)C(=O)N(c1cc(Cl)cc(Cl)c1)C2=O` (configuration not stated) [PROCYMIDONE]: the 50% effective concentration (EC50) is 12 µg/mL (≈ 42.3 µM) in assay [2] and 1.68 µg/mL (≈ 5.91 µM) in assay [4].

Turning to `COC(=O)N(OC)c1ccccc1COc1ccn(-c2ccc(Cl)cc2)n1` [PYRACLOSTROBIN], the EC50 in [1] stood at 5.67 µg/mL (≈ 14.6 µM); in assay [2] it was 0.08 µg/mL (≈ 0.206 µM); in [3], 12.2 µg/mL (≈ 31.4 µM); in assay [4] it was 0.92 µg/mL (≈ 2.37 µM); in assay [5] it was 4.25 µg/mL (≈ 11 µM); in assay [15], 0.13 µg/mL (≈ 0.335 µM). Also, the 50% effective concentration (EC50) in [6] was determined as 0.03 µg/mL (≈ 0.0774 µM); in assay [10], 9.59 µg/mL (≈ 24.7 µM); in assay [12], 0.04 µg/mL (≈ 0.103 µM); in [14] it was 8.17 µg/mL (≈ 21.1 µM). The “Ratio EC50” value in assay [7] is 106; in [8], 179; in assay [9], 406; in [11], 240; in [13] it was 204.

In the case of `CC(C)(C)C(O)(CCc1ccc(Cl)cc1)Cn1cncn1` (configuration not stated) [TEBUCONAZOLE], the EC50 is 20.1 µg/mL (≈ 65.3 µM) in [2] and 1.42 µg/mL (≈ 4.61 µM) in assay [4].

Take `COC(=O)NC(=S)Nc1ccccc1NC(=S)NC(=O)OC` [THIOPHANATE METHYL]: the values for the concentration giving a half-maximal response (EC50) in assay [2] and in [4] were 25.7 µg/mL (≈ 75 µM) and 1.45 µg/mL (≈ 4.23 µM), respectively.
